In US20110229412A1, “ANIMAL MODEL OF CENTRAL NEUROPATHIC PAIN AND MEHTODS OF MAKING AND USING THE SAME” (priority 2008, published 2011):
“Also recorded” adds a separate entry of the source.

System: rats having DREZs avulsed at T13/L1
Test: Allodynia (von Frey test) in rat T13/L1 DREZ avulsion model of central neuropathic pain
Type: in vivo
Description: Rats were anesthetized using isoflurane. Under aseptic condition, the skin was incised in the midline along the posterior thoracolumbar region. The paravertebral muscles were retracted laterally to expose the posterior aspect of the spinal laminae. Laminectomies were performed and the dura mater then incised along the midline to expose the dorsal rootlets of T13 and L1. The dorsal rootlets of T13 and L1 were then avulsed out of the spinal cord on the left side using micronstrumentation. Hemostasis was obtained and a layer of gelfoam placed over the dura. The wound was closed in layers. Perioperative antibiotics were administered in prophylaxis against infection. Subject rats were tested for allodynia of the hindpaws with the von Frey hair test, beginning day one post surgery and continuing daily over the subsequent four weeks. Rat animal model was generated similar to above. In one experiment, DREZ avulsion was unilateral (FIG. 2). In one experiment, DREZ avulsion was bilateral (FIG. 3). Ibudilast was delivered intrathecally daily in a corn oil carrier, with sham controls receiving only the corn oil. […] AV411 was administered to animals avulsed at the T13 and L1 dorsal root entry zones. The compound AV411 was administered to animals subject to the T13 and L1 hind paws. […] The reversal begins after 5-6 injections and continues to reverse behavior until day 33. The contralateral paw began to resolve at day 28 and the ipsilateral paw was still sensitive at day 33. […] Response thresholds on the von Frey test were recorded prior to and across a timecourse after avulsion surgery. Beginning on Day 12 post-surgery, rats (n=4/group) received once daily s.c. injections of either the glial activation inhibitor AV411/Ibudilast (Sigma; 5-mg/kg or 10-mg/kg) or equivolume vehicle (corn oil; 0.5-ml/kg). Daily drug treatment and intermittent behavioral testing continued through 33 days after surgery.

CC(C)C(=O)c1c(C(C)C)nn2ccccc12 [AV411, 2-methyl-1-(2-propan-2-ylpyrazolo[1,5-a]pyridin-3-yl)propan-1-one]
onset of reversal of allodynia (once daily s.c. 5-mg/kg or 10-mg/kg from Day 12 post-surgery): 5-6 injections
effect on allodynia induced by unilateral T13/L1 dorsal root avulsion (von Frey test) (once daily s.c. 5-mg/kg or 10-mg/kg from Day 12 post-surgery through day 33): reversed allodynia; also recorded: induces bilateral mechanical allodynia; also recorded: reverses bilateral allodynia
comparison of the 5 mg and 10 mg dose on allodynia (once daily s.c. 5-mg/kg vs 10-mg/kg): not differences between the 5 mg and 10 mg dose
day until which reversal of behavior continues (once daily s.c. from Day 12 post-surgery, days after surgery): ≤ 33 days
effect on allodynia in the model (unilateral (FIG. 2) or bilateral (FIG. 3) DREZ avulsion, delivered intrathecally daily in corn oil carrier): decreases allodynia
